In brackets after ≈: the same amount, converted by molar mass. Activity calls are given as the source filed them. The calls are words filed in the database; no cut-off is given here.

The results in this text go back to ChEMBL document CHEMBL6114946, “Development and characterization of pyridyl carboxamides as potent and highly selective Nav1.8 inhibitors” (Bioorg Med Chem Lett, 2025).

Data set [1] concerns the target T1, Sodium channel protein type 10 subunit alpha (Homo sapiens, UniProt Q9Y5Y9). In words: Inhibition of human Nav1.8 with resting membrane potential at half inactivated state by PatchXpress high-throughput electrophysiology method.
Target sequence in this assay (Q9Y5Y9 whole entry): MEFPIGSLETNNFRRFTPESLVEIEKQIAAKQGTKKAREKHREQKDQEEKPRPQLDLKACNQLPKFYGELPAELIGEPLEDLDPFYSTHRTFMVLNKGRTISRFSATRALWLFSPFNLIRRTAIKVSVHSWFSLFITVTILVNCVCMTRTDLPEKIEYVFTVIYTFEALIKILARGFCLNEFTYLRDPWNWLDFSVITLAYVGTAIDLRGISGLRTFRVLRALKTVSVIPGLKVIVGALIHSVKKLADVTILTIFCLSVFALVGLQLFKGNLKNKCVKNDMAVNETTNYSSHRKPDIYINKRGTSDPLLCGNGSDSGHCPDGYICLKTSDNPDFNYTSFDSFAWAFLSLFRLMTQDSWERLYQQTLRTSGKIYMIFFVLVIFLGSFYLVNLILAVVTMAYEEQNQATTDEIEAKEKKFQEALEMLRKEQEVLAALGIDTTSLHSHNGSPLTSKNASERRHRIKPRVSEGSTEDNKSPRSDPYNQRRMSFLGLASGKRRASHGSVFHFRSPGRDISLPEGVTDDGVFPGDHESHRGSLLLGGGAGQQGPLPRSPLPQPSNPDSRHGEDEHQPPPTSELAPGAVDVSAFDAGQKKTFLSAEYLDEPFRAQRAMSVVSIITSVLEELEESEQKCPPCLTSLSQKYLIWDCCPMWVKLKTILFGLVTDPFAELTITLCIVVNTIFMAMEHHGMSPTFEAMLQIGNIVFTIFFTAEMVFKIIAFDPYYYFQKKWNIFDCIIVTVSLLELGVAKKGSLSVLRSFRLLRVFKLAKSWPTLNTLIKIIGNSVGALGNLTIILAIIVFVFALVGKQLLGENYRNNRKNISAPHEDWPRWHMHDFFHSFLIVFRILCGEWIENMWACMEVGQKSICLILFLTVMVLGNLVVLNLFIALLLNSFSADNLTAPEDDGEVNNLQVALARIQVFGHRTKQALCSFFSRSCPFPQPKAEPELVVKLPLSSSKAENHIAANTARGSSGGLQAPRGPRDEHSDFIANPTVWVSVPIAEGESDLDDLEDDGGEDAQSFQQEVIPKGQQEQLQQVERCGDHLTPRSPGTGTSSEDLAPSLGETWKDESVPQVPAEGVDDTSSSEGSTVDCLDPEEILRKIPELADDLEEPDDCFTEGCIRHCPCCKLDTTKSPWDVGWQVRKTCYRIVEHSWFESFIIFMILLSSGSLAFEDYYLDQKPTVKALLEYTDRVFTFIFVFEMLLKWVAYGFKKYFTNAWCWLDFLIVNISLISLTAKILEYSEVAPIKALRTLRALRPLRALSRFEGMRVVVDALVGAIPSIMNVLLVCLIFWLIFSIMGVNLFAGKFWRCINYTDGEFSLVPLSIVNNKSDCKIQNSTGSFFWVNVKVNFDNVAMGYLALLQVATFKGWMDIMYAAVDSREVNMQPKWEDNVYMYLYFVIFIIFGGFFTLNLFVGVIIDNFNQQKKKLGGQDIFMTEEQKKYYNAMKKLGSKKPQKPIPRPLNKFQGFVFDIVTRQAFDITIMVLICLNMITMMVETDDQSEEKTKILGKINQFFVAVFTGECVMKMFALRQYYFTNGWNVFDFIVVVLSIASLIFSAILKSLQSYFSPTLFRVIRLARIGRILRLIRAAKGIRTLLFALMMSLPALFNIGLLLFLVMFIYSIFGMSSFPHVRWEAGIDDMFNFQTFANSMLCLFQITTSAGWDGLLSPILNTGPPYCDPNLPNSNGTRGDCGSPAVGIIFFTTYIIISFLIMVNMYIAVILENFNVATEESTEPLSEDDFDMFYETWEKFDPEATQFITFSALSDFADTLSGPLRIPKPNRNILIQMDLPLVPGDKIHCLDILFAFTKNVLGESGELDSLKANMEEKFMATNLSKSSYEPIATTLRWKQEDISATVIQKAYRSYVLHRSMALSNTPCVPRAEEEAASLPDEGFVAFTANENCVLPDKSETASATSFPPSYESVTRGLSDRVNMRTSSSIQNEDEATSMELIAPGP
Data set [2] has as its target T1, Sodium channel protein type 10 subunit alpha. Nature of the data set: Inhibition of Nav1.8 (unknown origin) at 10 uM by Ionflux high-throughput automated patch method.
Target sequence in this assay (Q9Y5Y9 whole entry, looked up): as the sequence (Q9Y5Y9 whole entry) above
Data set [3] has the same target. Nature of the data set: Inhibition of Nav1.8 (unknown origin) over expressed in HEK cells assessed as reduction in deltamethrin-stimulated channel activation by FLIPR assay. Type of data set: cell-based.
Target sequence in this assay (Q9Y5Y9 whole entry): as above
A short description of data set [4]: Kinetic solubility of the compound in pH 7.4 phosphate buffered saline measured after 2 hrs by LC/MS analysis. In kind it is physicochemical. To be noted: read-out: Kinetic_solubility.

`COc1cc(F)ccc1Oc1ccncc1C(=O)Nc1cccc(S(C)(=O)=O)c1`: the half-maximal inhibitory concentration (IC50) in data set [1] is more than 10000 nM. The inhibition result in data set [2] was “inactive”.

In the case of `CS(=O)(=O)c1cccc(NC(=O)c2cc(C(F)(F)F)cnc2Oc2ccccc2)c1`, the IC50 in data set [3] was found to be 1600 nM. Also, the inhibition entry in data set [2] was “Active”.

As for `CS(=O)(=O)c1cccc(NC(=O)c2cc(C(F)(F)F)cnc2Oc2ccc(F)cc2Cl)c1`, the IC50 in data set [3] was 251 nM. In addition, in data set [2], the inhibition result was “Active”.

On to `COc1cc(F)ccc1Oc1nc(C(F)(F)F)ccc1C(=O)Nc1cccc(S(C)(=O)=O)c1`, for which the IC50 in data set [3] was 102 nM. The inhibition result in data set [2] is “Active”.

In the case of `COc1cc(F)ccc1Oc1ncc(C(F)(F)F)cc1C(=O)Nc1ccccn1`, the IC50 in data set [3] was more than 5000 nM. In addition, the inhibition result in data set [2] is “Active”.

Turning to `COc1cc(F)ccc1Oc1ncc(C(F)(F)F)cc1C(=O)Nc1ccncn1`, the IC50 in data set [3] is 240 nM. The inhibition entry in data set [2] was “Active”.

For `COc1cc(F)ccc1Oc1ncc(C(F)(F)F)cc1C(=O)Nc1cccnc1`, the IC50 in data set [3] worked out at 2200 nM. Besides, in data set [2], the inhibition entry was “Active”.

`COc1cc(F)ccc1Oc1nccnc1C(=O)Nc1cccc(S(C)(=O)=O)c1`: in data set [1], the IC50 is more than 10000 nM. In addition, the inhibition entry in data set [2] was “inactive”.

Regarding `CS(=O)(=O)c1cccc(NC(=O)c2cc(C(F)(F)F)cnc2Oc2cc(F)cc(F)c2)c1`, the IC50 in data set [3] was determined as 1300 nM. The inhibition result in data set [2] was “Active”.

The compound `COc1cc(F)ccc1Oc1ncc(C(F)(F)F)cc1C(=O)NCCN(C)C` registered an IC50 in data set [1] of more than 10000 nM. In data set [2], the inhibition result is “inactive”.

For the compound `COc1cc(F)ccc1Oc1ncc(C(F)(F)F)cc1C(=O)Nc1ccc[n+]([O-])c1`, the IC50 in data set [3] is 1100 nM. The inhibition result in data set [2] was “Active”. For the same compound, in data set [4], the solubility kinetic at 2 h stood at 128 µg/mL (≈ 302 µM).

As for `CS(=O)(=O)c1cccc(NC(=O)c2cc(C(F)(F)F)cnc2Oc2ccc(F)cc2)c1`, the IC50 in data set [3] came to 2900 nM. Further, the inhibition entry in data set [2] is “Active”.

In the case of `COc1cc(F)ccc1Oc1ncc(C(F)(F)F)cc1C(=O)Nc1cccc(P(C)(C)=O)c1`, in data set [3], the IC50 amounted to 3000 nM. Also, the inhibition result in data set [2] was “Active”.

In data set [1], `COc1cc(F)ccc1Oc1nc(C(F)(F)F)ncc1C(=O)Nc1cccc(S(C)(=O)=O)c1` returned an IC50 of more than 10000 nM. In addition, in data set [2], the inhibition entry was “inactive”.

In turn, `COCCCNC(=O)c1cc(C(F)(F)F)cnc1Oc1ccc(F)cc1OC` yielded an IC50 in data set [1] of more than 10000 nM. Moreover, in data set [2], the inhibition result was “inactive”.

`COc1cc(F)ccc1Oc1cc(C(F)(F)F)ncc1C(=O)Nc1cccc(S(C)(=O)=O)c1`: the results for the IC50 in data set [3] and in data set [1] were 92 nM and 32 nM, respectively. For the same compound, the inhibition entry in data set [2] was “Active”.

For `COc1cc(F)ccc1Oc1nc2ccccc2nc1C(=O)Nc1cccc(S(C)(=O)=O)c1`, the IC50 worked out at 33 nM in data set [3] and 36 nM in data set [1]. In addition, the inhibition entry in data set [2] is “Active”.

As for `Cc1cc(F)ccc1Oc1ncc(C(F)(F)F)cc1C(=O)Nc1cccc(S(C)(=O)=O)c1`, the IC50 in data set [3] is 120 nM. Further, in data set [2], the inhibition result is “Active”.

`CC(C)Oc1ncc(C(F)(F)F)cc1C(=O)Nc1cccc(S(C)(=O)=O)c1` displayed an IC50 in data set [1] of more than 10000 nM. In addition, the inhibition result in data set [2] is “inactive”.

As for `CS(=O)(=O)c1cccc(NC(=O)c2cc(C(F)(F)F)cnc2Oc2cccnc2)c1`, the IC50 in data set [3] was more than 5000 nM. For the same compound, the inhibition result in data set [2] was “Active”.

In turn, `COc1cc(F)ccc1Oc1ncc(C(F)(F)F)cc1C(=O)NCc1cccnc1N1CCOCC1` came in with an IC50 in data set [1] of more than 10000 nM. For the same compound, in data set [2], the inhibition entry is “inactive”.

In turn, `COc1cc(F)ccc1Oc1ncccc1C(=O)Nc1cccc(S(C)(=O)=O)c1` registered an IC50 in data set [1] of more than 10000 nM. Besides, in data set [2], the inhibition result is “inactive”.

For `COc1cc(F)ccc1Oc1ncc(C(F)(F)F)cc1C(=O)Nc1cccc([S+](C)[O-])c1` (stereo unspecified), in data set [1], the IC50 is 40 nM. Also, the inhibition result in data set [2] is “Active”.

As to `CS(=O)(=O)c1cccc(NC(=O)c2cc(C(F)(F)F)cnc2Oc2c(F)cccc2F)c1`, in data set [3], the IC50 is more than 5000 nM. Further, in data set [2], the inhibition result is “Active”.

By IC50 is commonly meant the concentration that gives 50% inhibition.
